Test results published in patent publication US20250236627A1, “CERTAIN OCTAHYDROFURO[3,4- B]PYRAZINES AS GLP-1 RECEPTOR MODULATORS” (ASTRAZENECA AB, priority 2021, published 2025).

How the values were obtained:
human GLP-1R receptor = target: T1, human GLP-1R receptor (Homo sapiens, UniProt P43220, L260F); experiment: CHOK1 GLP-1R cAMP Assay; assay type: cell-based; conditions: CHO-K1 cell line stably expressing human GLP-1R; HTRF cAMP detection
T1 construct: expressed in transfected cells; host or cells: CHO-K1 (ATCC CCL-61)
T1 sequence (P43220 24-463 L260F): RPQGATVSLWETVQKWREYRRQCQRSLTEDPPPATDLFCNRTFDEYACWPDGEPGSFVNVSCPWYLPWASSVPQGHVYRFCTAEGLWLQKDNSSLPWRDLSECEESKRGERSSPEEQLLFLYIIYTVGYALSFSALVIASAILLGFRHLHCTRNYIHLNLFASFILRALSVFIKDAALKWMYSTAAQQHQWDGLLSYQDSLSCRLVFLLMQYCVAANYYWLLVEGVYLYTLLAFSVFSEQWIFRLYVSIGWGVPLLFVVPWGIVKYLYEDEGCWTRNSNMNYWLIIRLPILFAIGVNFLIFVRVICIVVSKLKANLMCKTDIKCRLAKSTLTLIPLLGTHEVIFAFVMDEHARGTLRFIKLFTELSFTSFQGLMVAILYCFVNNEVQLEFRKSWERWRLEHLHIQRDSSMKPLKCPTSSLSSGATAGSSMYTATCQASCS
Experimental: A cell line stably expressing the human GLP-1R receptor (NM_002062.5, including the naturally-occurring variant Leu260Phe) in a CHO-K1 (ATCC® CCL-61™) was used for assay.
GLP-1 Receptor mediated agonist activity was determined in a cell based assay measuring cAMP levels in cells using Homogeneous Time-Resolved Fluorescence (HTRF) cAMP detection kit (CisBio catalog #62AM4PEC, cAMP Gs Dynamic range kit). The cAMP detection method is based on a competitive immunoassay, in which cAMP produced by the cells and cAMP labeled with the dye d2 compete for binding to a Europium-Cryptate-labeled anti-cAMP antibody. The specific HTRF signal is inversely proportional to the concentration of cAMP.
Compounds were added to individual well in 384 well-assay plates (Greiner #784076) using an Echo (LabCyte) dispenser from 10 mM stocks. Varying concentration of compounds were added to wells, and dimethyl sulfoxide was used to normalize each well to a volume of 100 nanoliter. A dose response curve of GLP1(7-36)NH2 (Bachem H-6795) was included in each run. 5 μL of cAMP concentration response standards are applied in specified wells in the assay plates.
Cryo-preserved cells are thawed and resuspended in assay buffer pre-heated to 37° C. (20 mM 2-[4-(2-hydroxyethyl)piperazin-1-yl]ethanesulfonic acid (HEPES) pH 7.4, lx Hank's Balanced Salt Solution (HBSS, Life Technologies #14065) supplemented with 0.1% (w/v) bovine serum albumin (Sigma, A-7030)). Cells were centrifuged at 250*g for 5 min at room temperature, and resuspend in room tempered assay buffer to a final density of 0.16*10^6 cell/mL, to deliver 800 cells/well. 5 μL of assay buffer with 1 mM 3-isobutyl-1-methylxanthin (IBMX; Sigma cat I-7018) was dispensed per well in assay plates using a multidrop combi (Thermo Scientific) subsequently 5 μL of cell suspension was distributed to relevant wells in the assay using a multidrop dispenser. Assay plates were incubated 20 min at room temperature.
Detection reagents, Europium-Cryptate-labeled anti-cAMP antibody and cAMP labeled with the dye d2, are diluted in lysis buffer, provided by the manufacturer. 5 μL of each detection reagent is supplemented to each assay well using a multidrop dispenser. Assay plates are incubated in the dark for at least one hour. The HTRF signal is measured using the HTRF module (excitation: 337 nm, emission A: 665 nm and emission B: 620 nm) in Pherastar FSX (BMG Labtech).
Raw data were converted to pM cAMP using the cAMP standard curve included in each run. Converted data were further analyzed in Genedata Screener (Genedata) and EC50 determinations were made from agonist dose-response curves analyzed with a curve fitting program using a 4-parameter logistic dose response equation (Equation y=A+((B−A)/1+((C/x)^D))) where A is no stimulation, B is full stimulation, C is the EC50 and D is the Hill slope). The percent effect was determined relative to a saturating concentration of a full GLP-1R agonist (GLP1(7-36)NH2 has 100% effect in this assay setup).

[1] = target: T2, endogenous human glucagon-like peptide 1 receptor (GLP-1R) (Homo sapiens, UniProt P43220); experiment: EndoC cAMP Accumulation Assay; assay type: cell-based; conditions: EndoC-βH1 human pancreatic β cell line; HTRF cAMP assay
T2 construct: endogenous human glucagon-like peptide 1 receptor (GLP-1R) in a pancreatic insulinoma cell line; host or cells: EndoC-βH1 human pancreatic β cell line
T2 sequence (P43220 24-463): as the sequence (P43220 24-463 L260F) above, with F237L counted along it
Source text: EndoC cAMP Accumulation Assay
A HTRF (Homogeneous Time-Resolved Fluorescence) cAMP assay (cAMP Gs dynamic kit; CisoBio Cat #62AM4PEJ) was used to identify agonists of the endogenous human glucagon-like peptide 1 receptor (GLP-1R) in a pancreatic insulinoma cell line (EndoC-βH1). […] EndoC-βH1 cells have detectable GLP-1R mRNA as detected by qPCR^1. […] The EndoC-βH1 cell line is a valid model of human beta cells and applicable for screenings to identify novel drug target candidates (Mol. Metab., 2018, 8, 144-157). CisBio HTRF cAMP kits are based on a competitive immunoassay using cryptate-labelled anti-cAMP antibody and d2-labeled cAMP. The detection kit is intended for the direct quantitative determination of cAMP. The specific signal (i.e. energy transfer) is inversely proportional to the concentration of cAMP in the standard or sample. Test compounds (10 mM in DMSO) were diluted into assay buffer (HBSS (Sigma #H8264) supplemented with 25 mM HEPES (Gibco #15630, pH 7.4), 0.1% BSA (Sigma #A3059) and 0.5 mM IBMX (Sigma #I7018) included fresh on the day of the assay) into 96 well U-bottom plates (Greiner #650201). Diluted compounds were transferred to ECHO source PP plates (Labcyte #P-05525) and dose response curves were dispensed acoustically using ECHO 550 into black shallow-well u-bottom 384-well HTRF Assay Plates (Corning 4514).
Cryovials of EndoC-H1 (supplied at 1×10e^7 cells/vial) were used directly for screening. The cryovials and were removed from LN2 and thawed rapidly in a 37° C. water bath. The cells were resuspended in assay buffer and centrifuged at 300 g for 5 min. Cells were resuspended in assay buffer at the appropriate concentration, typically at 12e5 cells per mL (3000 cells per well, dependent on cell batch) and 2.5 μL diluted cells were added to all wells of destination plate by Multidrop combi reagent dispenser (Thermofisher). The plates were incubated at room temperature for 30 min. The assay was stopped by adding 2.5 μL anti-cAMP cryptate solution to all wells and 2.5 μL cAMP-d2 solution (both diluted 1:20 in lysis buffer) to columns 1-22 by Combi drop. A volume of 2.5 μL cAMP-d2 solution was added to wells E23 to P24 and 2.5 μL lysis buffer added to wells A23 to D24 by multichannel pipette. The plates were incubated at room temperature for 1 hr and read on an Envision plate reader using excitation wavelength of 320 nm and emission of 590 nm and 660 nm.
Raw data from Envision is converted to % DeltaF according to the manufacturer's instructions. Dose response curves are analysed via 4-Parameter Logistical Analysis and assay plate Z′ values obtained. Samples are graphed as percentage (%) activation plots compared to GIP (1-42, Bachem H-5645) with assay window defined by negative control as basal cell cAMP levels and positive control are defined by maximum GIP (82.5 nM) signal. GLP1 (7-36 amide, Bachem H-6795) dose response curve was included on all plates.

## C[C@]1(c2ccc(Cl)cc2F)Oc2cccc(N3CCN(Cc4nc5c(F)cc(C(=O)O)cc5n4Cc4cccnc4)[C@H]4COC[C@H]43)c2O1 (single isomer, unassigned) [Example 13b]
Human GLP-1R receptor
  EC50: 680 nM
[1]
  EC50: 290 nM

## C[C@]1(c2ccc(Cl)cn2)Oc2cccc(N3CCN(Cc4nc5c(F)cc(C(=O)O)cc5n4C[C@@H]4CCO4)[C@H]4COC[C@H]43)c2O1 (single isomer, unassigned) [Example 9b, 2-((4aR*,7aS*)-4-((R*)-2-(5-Chloropyridin-2-yl)-2-methylbenzo[d][1,3]dioxol-4-yl)hexahydrofuro[3,4-b]pyrazin-1(2H)-yl)methyl)-4-fluoro-1-(((S)-oxetan-2-yl)methyl)-1H-benzo[d]imidazole-6-carboxylic acid]
Human GLP-1R receptor
  EC50: 180 nM
[1]
  EC50: 660 nM

## C[C@]1(c2ccc(Cl)cn2)Oc2cccc(N3CCN(Cc4nc5c(F)cc(C(=O)O)cc5n4C[C@@H]4CCCO4)[C@H]4COC[C@H]43)c2O1 (single isomer, unassigned) [Example 12b, 2-(((4aR*,7aS*)-4-((R*)-2-(5-Chloropyridin-2-yl)-2-methylbenzo[d][1,3]dioxol-4-yl)hexahydrofuro[3,4-b]pyrazin-1(2H)-yl)methyl)-4-fluoro-1-(((S)-tetrahydrofuran-2-yl)methyl)-1H-benzo[d]imidazole-6-carboxylic acid]
Human GLP-1R receptor
  EC50: 61 nM
[1]
  EC50: 91 nM

## C[C@]1(c2ccc(Cl)cn2)Oc2cccc(N3CCN(Cc4nc5ccc(C(=O)O)cc5n4C[C@@H]4CCO4)[C@H]4COC[C@H]43)c2O1 (single isomer, unassigned) [Example 5d, 2-(((4aR*,7aS*)-4-((R*)-2-(5-Chloropyridin-2-yl)-2-methylbenzo[d][1,3]dioxol-4-yl)hexahydrofuro[3,4-b]pyrazin-1(2H)-yl)methyl)-1-(((S)-oxetan-2-yl)methyl)-1H-benzo[d]imidazole-6-carboxylic acid]
Human GLP-1R receptor
  EC50: 330 nM
[1]
  EC50: 2100 nM

## C[C@]1(c2ccc(Cl)cn2)Oc2cccc(N3CCN(Cc4nc5c(Cl)cc(C(=O)O)cc5n4C[C@@H]4CCO4)[C@H]4COC[C@H]43)c2O1 (single isomer, unassigned) [Example 14c, 4-Chloro-2-(((4aR*,7aS*)-4-((R*)-2-(5-chloropyridin-2-yl)-2-methylbenzo[d][1,3]dioxol-4-yl)hexahydrofuro[3,4-b]pyrazin-1(2H)-yl)methyl)-1-(((S)-oxetan-2-yl)methyl)-1H-benzo[d]imidazole-6-carboxylic acid]
Human GLP-1R receptor
  EC50: 180 nM
[1]
  EC50: 230 nM

## C[C@]1(c2ccc(Cl)cn2)Oc2cccc(N3CCN(Cc4nc5c(Cl)cc(C(=O)O)cc5n4C[C@@H]4CCO4)[C@H]4COC[C@H]43)c2O1 (single isomer, unassigned) [Example 14d, 4-Chloro-2-(((4aR*,7aS*)-4-((R*)-2-(5-chloropyridin-2-yl)-2-methylbenzo[d][1,3]dioxol-4-yl)hexahydrofuro[3,4-b]pyrazin-1(2H)-yl)methyl)-1-(((S)-oxetan-2-yl)methyl)-1H-benzo[d]imidazole-6-carboxylic acid]
Human GLP-1R receptor
  EC50: 190 nM
[1]
  EC50: 480 nM

## C[C@]1(c2ccc(Cl)cn2)Oc2cccc(N3CCN(Cc4nc5c(Cl)cc(C(=O)O)cc5n4CC4(C#N)CC4)[C@H]4COC[C@H]43)c2O1 (single isomer, unassigned) [Example 23b]
Human GLP-1R receptor
  EC50: 77 nM
[1]
  EC50: 190 nM

## C[C@]1(c2ccc(Cl)cc2F)Oc2cccc(N3CCN(Cc4nc5ccc(C(=O)O)cc5n4C[C@@H]4CCO4)[C@H]4COC[C@H]43)c2O1 (single isomer, unassigned) [Example 6b, 2-(((4aR*,7aS*)-4-((R*)-2-(4-Chloro-2-fluorophenyl)-2-methylbenzo[d][1,3]dioxol-4-yl)hexahydrofuro[3,4-b]pyrazin-1(2H)-yl)methyl)-1-(((S)-oxetan-2-yl)methyl)-1H-benzo[d]imidazole-6-carboxylic acid]
Human GLP-1R receptor
  EC50: 54 nM
[1]
  EC50: 300 nM

## C[C@]1(c2ccc(Cl)cn2)Oc2cccc(N3CCN(Cc4nc5c(F)cc(C(=O)O)cc5n4C[C@@H]4CCCO4)[C@H]4COC[C@H]43)c2O1 (single isomer, unassigned) [Example 12a, 2-(((4aR*,7aS*)-4-((R*)-2-(5-Chloropyridin-2-yl)-2-methylbenzo[d][1,3]dioxol-4-yl)hexahydrofuro[3,4-b]pyrazin-1(2H)-yl)methyl)-4-fluoro-1-(((S)-tetrahydrofuran-2-yl)methyl)-1H-benzo[d]imidazole-6-carboxylic acid]
Human GLP-1R receptor
  EC50: 8 nM
[1]
  EC50: 7.6 nM

## C[C@]1(c2ccc(Cl)cc2F)Oc2cccc(N3CCN(Cc4nc5c(Cl)cc(C(=O)O)cc5n4C[C@@H]4CCO4)[C@H]4COC[C@H]43)c2O1 (single isomer, unassigned) [Example 15b, 4-Chloro-2-(((4aR*,7aS*)-4-((R*)-2-(4-chloro-2-fluorophenyl)-2-methylbenzo[d][1,3]dioxol-4-yl)hexahydrofuro[3,4-b]pyrazin-1(2H)-yl)methyl)-1-(((S)-oxetan-2-yl)methyl)-1H-benzo[d]imidazole-6-carboxylic acid]
Human GLP-1R receptor
  EC50: 71 nM
[1]
  EC50: 120 nM

## COc1cc(C(=O)O)cc2c1nc(CN1CCN(c3cccc4c3O[C@@](C)(c3ccc(Cl)cc3F)O4)[C@@H]3COC[C@@H]31)n2C[C@@H]1CCO1 (single isomer, unassigned) [Example 3c, 2-(((4aR*,7aS*)-4-((R*)-2-(4-Chloro-2-fluorophenyl)-2-methylbenzo[d][1,3]dioxol-4-yl)hexahydrofuro[3,4-b]pyrazin-1(2H)-yl)methyl)-4-methoxy-1-(((S)-oxetan-2-yl)methyl)-1H-benzo[d]imidazole-6-carboxylic acid]
Human GLP-1R receptor
  EC50: 150 nM
[1]
  EC50: 130 nM
